Measurements published in ChEMBL document CHEMBL5346941, “Design, synthesis and evaluation of novel monoamine oxidase B (MAO-B) inhibitors with improved pharmacokinetic properties for Parkinson's disease” (Eur J Med Chem, 2023).

Key:
[1] = biological target: T1, Amine oxidase [flavin-containing] B (Homo sapiens, UniProt P27338); experiment: Inhibition of recombinant human MAO-B expressed in Sf9 cells using p-tyramine as substrate preincubated for 15 mins followed by substrate addition and measured after 60 mins by luciferin based luminescence analysis
T1 sequence (P27338 whole entry): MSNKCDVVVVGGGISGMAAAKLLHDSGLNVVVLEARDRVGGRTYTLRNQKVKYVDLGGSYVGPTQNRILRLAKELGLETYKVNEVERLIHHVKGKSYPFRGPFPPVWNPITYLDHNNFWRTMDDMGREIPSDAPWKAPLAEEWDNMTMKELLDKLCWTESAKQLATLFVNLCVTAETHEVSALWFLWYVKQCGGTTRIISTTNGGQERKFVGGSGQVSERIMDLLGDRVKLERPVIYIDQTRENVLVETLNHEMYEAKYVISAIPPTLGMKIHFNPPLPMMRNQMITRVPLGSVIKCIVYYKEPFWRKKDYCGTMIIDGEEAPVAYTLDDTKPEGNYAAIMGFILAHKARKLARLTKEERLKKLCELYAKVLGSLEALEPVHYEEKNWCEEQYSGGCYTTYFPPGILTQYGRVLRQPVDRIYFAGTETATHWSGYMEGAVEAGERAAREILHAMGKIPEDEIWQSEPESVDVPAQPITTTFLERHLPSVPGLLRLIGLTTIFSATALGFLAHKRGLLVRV

[2] = biological target: T2, Amine oxidase [flavin-containing] A (Homo sapiens, UniProt P21397); experiment: Inhibition of recombinant human MAO-A expressed in Sf9 cells using […] as substrate preincubated for 15 mins followed by substrate addition and measured after 60 mins by luciferin based luminescence analysis
T2 sequence (P21397 whole entry): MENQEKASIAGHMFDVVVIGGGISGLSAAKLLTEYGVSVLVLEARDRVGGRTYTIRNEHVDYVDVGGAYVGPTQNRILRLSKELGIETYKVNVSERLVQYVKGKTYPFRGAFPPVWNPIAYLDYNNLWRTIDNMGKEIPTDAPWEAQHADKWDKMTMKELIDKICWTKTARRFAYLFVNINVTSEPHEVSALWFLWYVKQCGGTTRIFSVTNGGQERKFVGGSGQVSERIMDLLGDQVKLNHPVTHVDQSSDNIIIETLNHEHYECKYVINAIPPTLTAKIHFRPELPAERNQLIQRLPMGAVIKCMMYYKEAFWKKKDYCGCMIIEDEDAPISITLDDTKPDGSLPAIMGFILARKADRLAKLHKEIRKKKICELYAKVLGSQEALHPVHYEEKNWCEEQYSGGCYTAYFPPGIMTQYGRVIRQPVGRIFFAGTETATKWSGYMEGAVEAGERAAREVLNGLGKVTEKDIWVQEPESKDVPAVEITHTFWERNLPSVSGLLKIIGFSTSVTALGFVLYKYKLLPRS

[3] = Elimination half life in fasted Sprague-Dawley rat at 1 mg/kg, iv measured for 24 hrs; type: ADME, organism-based; conditions: in vivo, read-out: beta t1/2 (converted)
[4] = Bioavailability in fasted Sprague-Dawley rat at 5 mg/kg, IG measured for 24 hrs; type: ADME, organism-based; conditions: in vivo, po
[5] = AUC (0 to t) in fasted Sprague-Dawley rat at 5 mg/kg, IG measured for 24 hrs; type: ADME, organism-based; parameters: dose 5 mg/kg, time 24 hrs, route ig; conditions: in vivo, po
[6] = Clearance in fasted Sprague-Dawley rat at 1 mg/kg, iv measured for 24 hrs; type: ADME, organism-based; conditions: in vivo
[7] = Cmax in fasted Sprague-Dawley rat at 1 mg/kg, iv measured for 24 hrs; type: ADME, organism-based; parameters: dose 1 mg/kg, time 24 hrs, route iv; conditions: in vivo
[8] = Cmax in fasted Sprague-Dawley rat at 5 mg/kg, IG measured for 24 hrs; type: ADME, organism-based; parameters: dose 5 mg/kg, time 24 hrs, route ig; conditions: in vivo, po
[9] = Elimination half life in fasted Sprague-Dawley rat at 5 mg/kg, IG measured for 24 hrs; type: ADME, organism-based; conditions: in vivo, po, read-out: beta t1/2 (converted)
[10] = AUC (0 to t) in fasted Sprague-Dawley rat at 1 mg/kg, iv measured for 24 hrs; type: ADME, organism-based; parameters: dose 1 mg/kg, time 24 hrs, route iv; conditions: in vivo
[11] = Volume of distribution at steady state in fasted Sprague-Dawley rat at 1 mg/kg, iv measured for 24 hrs; type: ADME, organism-based; conditions: in vivo, read-out: Vdss
[12] = Clearance in fasted ICR mouse at 2 mg/kg, iv measured for 24 hrs; type: ADME, organism-based; conditions: in vivo
[13] = Elimination half life in fasted ICR mouse at 5 mg/kg, IG measured for 24 hrs; type: ADME, organism-based; conditions: in vivo, po, read-out: beta t1/2 (converted)
[14] = Bioavailability in fasted ICR mouse at 5 mg/kg, IG measured for 24 hrs; type: ADME, organism-based; conditions: in vivo, po
[15] = Elimination half life in fasted ICR mouse at 2 mg/kg, iv measured for 24 hrs; type: ADME, organism-based; conditions: in vivo, read-out: beta t1/2 (converted)
[16] = Cmax in fasted ICR mouse at 5 mg/kg, IG measured for 24 hrs; type: ADME, organism-based; parameters: dose 5 mg/kg, time 24 hrs, route ig; conditions: in vivo, po
[17] = AUC (0 to t) in fasted ICR mouse at 5 mg/kg, IG measured for 24 hrs; type: ADME, organism-based; parameters: dose 5 mg/kg, time 24 hrs, route ig; conditions: in vivo, po
[18] = AUC (0 to t) in fasted ICR mouse at 2 mg/kg, iv measured for 24 hrs; type: ADME, organism-based; parameters: dose 2 mg/kg, time 24 hrs, route iv; conditions: in vivo
[19] = Cmax in fasted ICR mouse at 2 mg/kg, iv measured for 24 hrs; type: ADME, organism-based; parameters: time 24 hrs, dose 2 mg/kg, route iv; conditions: in vivo
[20] = Volume of distribution at steady state in fasted ICR mouse at 2 mg/kg, iv measured for 24 hrs; type: ADME, organism-based; conditions: in vivo, read-out: Vdss

In the case of `COc1ccc(-c2cc3cc(CN4CC[C@H]4C(N)=O)ccc3o2)cc1`, the IC50 [1] is reported as 7390 nM and the IC50 [2] is reported as > 10000 nM.
`C[C@H](NCc1ccc2oc(-c3ccc(F)cc3)cc2c1)C(N)=O` showed an IC50 [1] of 948 nM and an IC50 [2] of 3540 nM.
Work on `NC(=O)[C@@H]1CCN1Cc1ccc2oc(-c3ccccc3F)cc2c1` yielded a half-life [3] of 22.4 min, a bioavailability [4] of 86.7% and an IC50 [1] of 73 nM. It also gave an AUC(0-t) at 24 h [5] of 672 ng·h/mL, a clearance [6] of 106 mL/min/kg and a Cmax ([7]; Sprague-Dawley, read-out: Cmax) of 360 ng/mL. The Cmax [8] was 167 ng/mL, the half-life [9] was 69 min and the IC50 [2] was > 10000 nM. For the same molecule, the AUC(0-t) at 24 h [10] was 155 ng·h/mL and the Vd [11] was 2.39 L/kg.
Molecule `NC(=O)[C@@H]1C[C@H](F)CN1Cc1ccc(OCc2cccc(F)c2)cc1` has a clearance [12] of 63.3 mL/min/kg, a half-life [13] of 46.8 min and a bioavailability [14] of 77.4%. The half-life [15] was 33 min, the Cmax [16] was 833 ng/mL and the AUC(0-t) at 24 h [17] was 1080 ng·h/mL. It also gave a Cmax ([7]; 24 h) of 69.1 ng/mL, a Cmax [8] of 690 ng/mL and an AUC(0-t) at 24 h [18] of 561 ng·h/mL. The Cmax [19] was 613 ng/mL and the Vd [20] was 2.6 L/kg.
In the case of `COc1cccc(-c2cc3cc(CN4CC[C@H]4C(N)=O)ccc3o2)c1`, the IC50 [1] is reported as 103 nM and the IC50 [2] is reported as > 10000 nM.
Work on `C[C@H](NCc1ccc2oc(-c3cccc(F)c3)cc2c1)C(N)=O` yielded an IC50 [1] of 2250 nM and an IC50 [2] of 4940 nM.
With `NC(=O)[C@@H]1CC(F)(F)CN1Cc1ccc2oc(-c3ccc(F)cc3)cc2c1` the IC50 [1] was 833 nM and the IC50 [2] was > 10000 nM.
With `COc1ccc(-c2cc3cc(CN[C@@H](C)C(N)=O)ccc3o2)cc1` the IC50 [1] was > 10000 nM and the IC50 [2] was 2780 nM.
